# Assay results taken from the NIST ThermoML archive (doi:10.1021/acs.jced.5b00950).
# ± gives the expanded uncertainty stated by the source.
# Assays:
# [1] = 298.2 K; 101.33 kPa; Liquid; Vibrating tube method
# [2] = refractive index (Na D-line) (dimensionless); conditions: 298.2 K; 101.33 kPa; Liquid; Standard Abbe refractometry
Structure (SMILES),mass density [1] [kg/m3],refractive index [2]
CCCC(=O)O [butanoic acid],952.8 ± 2,1.3964 ± 0.002
CC(=O)Oc1ccccc1 [phenyl ethanoate],1073 ± 2,1.5012 ± 0.002
O [water],999.9 ± 2,1.3324 ± 0.002
